Experimental data: PubChem BioAssay (NCI)
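Cultured in 96-well plates, cells were exposed to test compound for 48 hours across five concentrations. GI50 is the concentration that inhibits growth by half. Definition used: TGI = concentration required for complete inhibition of growth.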

Assays:
Experiment in all cases: inhibition of tumour cell growth, NCI panel, 48 h
A549 NSCLC = test system: A549 NSCLC
CCRF-CEM leukemia = test system: CCRF-CEM leukemia
HCT-15 colon = test system: HCT-15 colon
HL-60(TB) leukemia = test system: HL-60(TB) leukemia
HT29 colon = test system: HT29 colon
K-562 leukemia = test system: K-562 leukemia
SF-268 CNS = test system: SF-268 CNS
SF-539 CNS = test system: SF-539 CNS
SNB-19 CNS = test system: SNB-19 CNS
SW-620 colon = test system: SW-620 colon
UO-31 renal = test system: UO-31 renal

| Compound | TGI (A549 NSCLC) | TGI (CCRF-CEM leukemia) | TGI (HCT-15 colon) | TGI (HL-60(TB) leukemia) | TGI (HT29 colon) | TGI (K-562 leukemia) | TGI (SF-268 CNS) | TGI (SF-539 CNS) | TGI (SNB-19 CNS) | TGI (SW-620 colon) | TGI (UO-31 renal) | GI50 (CCRF-CEM leukemia) | GI50 (HCT-15 colon) | GI50 (HT29 colon) | GI50 (K-562 leukemia) | GI50 (SF-268 CNS) | GI50 (SF-539 CNS) | GI50 (SNB-19 CNS) | GI50 (SW-620 colon) | GI50 (UO-31 renal) |
| --- | --- | --- | --- | --- | --- | --- | --- | --- | --- | --- | --- | --- | --- | --- | --- | --- | --- | --- | --- | --- |
| CCCCCCCNC(P(=O)(O)O)P(=O)(O)O | > 100 µM | > 100 µM | > 100 µM | > 100 µM | > 100 µM | > 100 µM | > 100 µM | > 100 µM | > 100 µM | > 100 µM | > 100 µM | – | – | – | – | – | – | – | – | – |
| Fc1ccc(-c2nn3c(-c4cc(C(F)(F)F)cc(C(F)(F)F)c4)nnc3s2)cc1 | – | > 50 µM | > 50 µM | – | > 50 µM | > 50 µM | > 50 µM | > 50 µM | > 50 µM | > 50 µM | > 50 µM | > 50 µM | > 50 µM | > 50 µM | > 50 µM | 3.03 µM | 3.07 µM | 1.57 µM | > 50 µM | 1.32 µM |
| C=C1C(=O)O[C@@H]2[C@H]1CCC(C)=C1C=CC(=O)[C@]12C | 73 µM | 26 µM | – | 14 µM | 24.2 µM | 90.2 µM | 45.9 µM | 30 µM | 71.8 µM | 18.4 µM | 28.7 µM | – | – | – | – | – | – | – | – | – |
| COC1=CC(=O)c2c(cc(COP(=O)(OCC3OC(n4cc(F)c(=O)[nH]c4=O)CC3O)N(C)CCCCCl)n2C)C1=O (centres undefined) | 6.27 µM | > 100 µM | > 86.4 µM | 16 µM | > 40.7 µM | > 95.9 µM | 16.1 µM | – | > 70.5 µM | > 59.9 µM | > 69.3 µM | – | – | – | – | – | – | – | – | – |
| O=C(O)C1CCC(=O)N1S(=O)(=O)c1ccccc1 (centres undefined) | > 100 µM | > 100 µM | > 100 µM | > 100 µM | > 100 µM | > 100 µM | > 100 µM | > 100 µM | > 100 µM | > 100 µM | > 100 µM | – | – | – | – | – | – | – | – | – |
| CO/C(=C/C(=O)C(Cl)(Cl)Cl)CC/C(=C\C(=O)C(Cl)(Cl)Cl)OC | > 100 µM | > 100 µM | 73.1 µM | 80.5 µM | 85.3 µM | > 100 µM | > 100 µM | 63.2 µM | > 100 µM | > 100 µM | 43.4 µM | – | – | – | – | – | – | – | – | – |
| O=C(Nc1c(C(=O)NC2CCCCC2)[nH]c(=O)[nH]c1=O)c1ccc(Cl)cc1 | > 100 µM | > 100 µM | > 100 µM | > 100 µM | > 100 µM | > 100 µM | > 100 µM | > 100 µM | – | > 100 µM | > 100 µM | – | – | – | – | – | – | – | – | – |
| c1ccc(N=c2nc(N3CCOCC3)ss2)cc1 | > 100 µM | – | 29 µM | 47.3 µM | 35.4 µM | 43.6 µM | 31.1 µM | 32.3 µM | > 100 µM | 21.8 µM | 50.2 µM | – | – | – | – | – | – | – | – | – |
| NC1(C(=O)O)CCc2ccc(N(CCCl)CCCl)cc2C1 (centres undefined) | > 100 µM | > 100 µM | > 100 µM | > 100 µM | > 100 µM | > 100 µM | 87 µM | > 100 µM | > 100 µM | > 100 µM | > 100 µM | – | – | – | – | – | – | – | – | – |
| CC(=O)OCC1=C(C(=O)O)C(c2ccc3c(c2)OCO3)c2cc3c(cc2O1)OCO3 (centres undefined) | > 100 µM | > 100 µM | > 100 µM | > 100 µM | > 100 µM | > 100 µM | – | > 100 µM | > 100 µM | > 100 µM | > 100 µM | – | – | – | – | – | – | – | – | – |
| Cc1cc(C)c2c(c1)C1=NCCN1C2(O)c1ccc(Cl)cc1 (centres undefined) | 35.5 µM | 54.7 µM | 32.4 µM | 49.4 µM | 31.5 µM | 65 µM | 31 µM | 29 µM | 31.7 µM | 29.2 µM | 26.9 µM | – | – | – | – | – | – | – | – | – |
| Cc1cc2c(C(C)C)c(O)c(O)c(C=NCCO)c2c(O)c1-c1c(C)cc2c(C(C)C)c(O)c(O)c(C=NCCO)c2c1O | 2.98 µM | 5.78 µM | 2.9 µM | 4.97 µM | 4.99 µM | 3.31 µM | 3.1 µM | 5.37 µM | 25.1 µM | 16.7 µM | 11 µM | – | – | – | – | – | – | – | – | – |
| CC(=O)O[C@H]1C=CC(=O)C(C)CC1C (some centres undefined) | > 100 µM | > 100 µM | – | > 100 µM | > 100 µM | > 100 µM | > 100 µM | > 100 µM | > 100 µM | > 100 µM | > 100 µM | – | – | – | – | – | – | – | – | – |
| Clc1ccc(CNc2nc(Cl)c3[nH]cnc3n2)cc1Cl | > 100 µM | > 100 µM | > 100 µM | – | 83.4 µM | > 100 µM | 81.8 µM | 45.2 µM | > 100 µM | – | 60 µM | – | – | – | – | – | – | – | – | – |
| CCOc1ccc(/C(C=O)=C(\Cl)c2ccc(OC)c(OC)c2)cc1 | – | > 100 µM | > 100 µM | > 100 µM | > 100 µM | > 100 µM | > 100 µM | > 100 µM | > 100 µM | > 100 µM | > 100 µM | – | – | – | – | – | – | – | – | – |
| Cc1ccc(C2N=C(N)NC3=C2CCOc2c3ccc3ccccc23)cc1 (centres undefined) | > 64.6 µM | 3.71 µM | > 60.1 µM | 19 µM | > 66.7 µM | > 44.1 µM | > 75.6 µM | 44.7 µM | > 100 µM | > 100 µM | > 100 µM | – | – | – | – | – | – | – | – | – |
| N=C(N)SCc1cc(Cl)cc(Cl)c1O | 53.9 µM | 35.6 µM | 46.8 µM | 21.1 µM | 32.1 µM | 41.5 µM | 58.3 µM | 22.1 µM | 56.8 µM | 49.4 µM | 32.4 µM | – | – | – | – | – | – | – | – | – |
| O=C(COc1ccc(OCC(=O)NNC2=NC(c3cc(F)c(Cl)cc3Cl)CS2)c(Cl)c1)NNC1=NC(c2cc(F)c(Cl)cc2Cl)CS1 (centres undefined) | 28.6 µM | > 100 µM | 36 µM | > 100 µM | 59.3 µM | > 100 µM | – | 64.5 µM | > 100 µM | > 100 µM | > 100 µM | – | – | – | – | – | – | – | – | – |
| CC(=O)C=NCC(=O)O | > 100 µM | > 100 µM | > 100 µM | > 100 µM | > 100 µM | > 100 µM | > 100 µM | > 100 µM | > 100 µM | > 100 µM | – | – | – | – | – | – | – | – | – | – |
| CCCC(N)C(=O)c1ccccc1 (centres undefined) | > 100 µM | > 100 µM | > 100 µM | > 100 µM | > 100 µM | > 100 µM | > 100 µM | > 100 µM | > 100 µM | > 100 µM | > 100 µM | – | – | – | – | – | – | – | – | – |
| c1ccc(-c2nnc(SCc3c[nH]c4ccccc34)n2-c2ccccc2)cc1 | > 100 µM | > 100 µM | > 100 µM | > 100 µM | > 100 µM | > 100 µM | > 100 µM | 70.3 µM | > 100 µM | > 100 µM | > 100 µM | – | – | – | – | – | – | – | – | – |
| COc1c2c(cc3c1OCO3)C13C=CC(OC)CC1N(CC3)C2 (centres undefined) | > 100 µM | > 100 µM | > 100 µM | > 100 µM | > 100 µM | – | > 100 µM | > 100 µM | > 100 µM | > 100 µM | > 100 µM | – | – | – | – | – | – | – | – | – |
| O=C(Nc1ccc(Sc2ccc(N=Nc3c(O)c(S(=O)(=O)O)cc4cc(S(=O)(=O)O)ccc34)cc2)cc1)c1ccc(N=Nc2c(O)ccc3c(S(=O)(=O)O)cc(S(=O)(=O)O)cc23)cc1 | > 100 µM | 77.4 µM | > 100 µM | 33.5 µM | > 100 µM | 87.6 µM | > 100 µM | > 100 µM | > 100 µM | > 100 µM | > 100 µM | – | – | – | – | – | – | – | – | – |
| Cc1cc(C)nc(SCC(=O)OC2CC(C)CCC2C(C)C)n1 (centres undefined) | 63.4 µM | 42.5 µM | 43.8 µM | 44.2 µM | 39.9 µM | 52.2 µM | > 100 µM | – | 45.9 µM | 52.3 µM | 33.7 µM | – | – | – | – | – | – | – | – | – |
| N#CC(Nc1cccc(C(F)(F)F)c1)c1ccccc1C(F)(F)F (centres undefined) | 29.3 µM | 59.7 µM | 17.8 µM | 7.57 µM | 28 µM | 42.4 µM | 32.2 µM | 33.1 µM | 31.9 µM | 11 µM | 31.9 µM | – | – | – | – | – | – | – | – | – |
